In publication PMC12357248, “Selectively targeting BCL6 using a small-molecule inhibitor is a potential therapeutic strategy for glioblastoma” (Genes & Diseases, 2025):

Tests used:
[1] = biological target: BCL6^BTB/SMRT interaction (Homo sapiens, UniProt P41182); test: HTRF assay, BCL6-BTB/SMRT interaction; assay type: binding
eGFP-BCL6 (FL) = biological target: T1, eGFP-BCL6 (FL) (Homo sapiens, UniProt P41182); test: BCL6-eGFP-mCherry stability reporter in HEK293T cells; assay type: cell-based; settings: 1 μM
T1 construct: a gene encoding the full-length BCL6 protein fused to eGFP; expressed in transfected cells; host or cells: HEK293T

BCL6^BTB = biological target: T2, BCL6^BTB (Homo sapiens, UniProt P41182); test: Luciferase reporter assay, BCL6-BTB-mediated transcriptional repression; assay type: cell-based; settings: even at 20 μM
T2 construct: expressed in transfected cells

U87-MG = test: MTS cell viability assay; assay type: cell-based; settings: Homo sapiens, U-87 MG
Description: (§1) Cell viability was tested by MTS assay (Promega, USA). 8000 cells were seeded in a 96-well plate and then treated with compounds for 72 h, followed by the addition of 20 μL of MTS and incubation at 37 °C for 2–3 h. Absorbance at 490 nm is measured with the SpectraMax 190 plate reader, and the IC50 value is calculated by GraphPad Prism. In the drug combination assay, combination index (CI) values were calculated using CalcuSyn software. A CI value greater than 1 has a drug antagonistic effect, and a value less than 1 has a synergistic effect.

U251 = test: MTS cell viability assay; assay type: cell-based; settings: Homo sapiens, U-251
Description: as §1

SF268 = test: MTS cell viability assay; assay type: cell-based; settings: Homo sapiens, SF-268
Description: as §1

U87-MG-Luc xenograft = test: Intracranial (orthotopic) U87-MG-Luc GBM xenograft; assay type: in vivo, BALB/c nude mice; settings: TMZ 5 mg/kg, YK01 12.5 mg/kg, intraperitoneally
Text: An orthotopic U87-MG GBM-bearing mouse model of BALB/c nude mice was created. Five microlitres of U87-MG-Luc cells (1 × 10^5 cells) were implanted into the left striatum of anaesthetized animals. The burr hole was then filled with bone wax, and the scalp was closed with tissue glue. To assess the growth of the glioma, bioluminescence imaging (in vivo imaging system, Lumina III) was used to determine its size. […]

BCL6 = test: Western blotting of BCL6 after TMZ treatment; assay type: cell-based; settings: U251, SF268, U87-MG, 24 h
Description: Cell lines were treated with drugs, and tumor tissues were collected in a Ripa lysis buffer. Western blotting was performed using antibodies against BCL6 (14895S, Cell Signaling Technology), PARP (poly(ADP-Ribose) polymerase; 9532S, Cell Signaling Technology), γH2AX (phosphorylated form of H2A.X variant histone; 9718S, Cell Signaling Technology), phospho-ERK (4370S, Cell Signaling Technology), ERK (extracellular signal-regulated kinase; 4695T, Cell Signaling Technology), phospho-AKT (4060S, Cell Signaling Technology), AKT (9272S, Cell Signaling Technology), GAPDH (AB0036, ABWAYS), BCL2 (T40056F, ABWAYS), c-MYC (CY5150, ABWAYS).

For `CNC(=O)COc1cc2cc(Nc3nc(N4C[C@H](C)C[C@H](C)C4)ncc3Cl)ccc2n(C)c1=O` [BI3802], the IC50 [1] was 0.0027 µM, the “effect on eGFP-BCL6 (FL) reporter” value (eGFP-BCL6 (FL)) was “degradation” and the “effect on BCL6^BTB” value (BCL6^BTB) was “little effect”.

`O=C(O)CCN1C(=O)/C(=C2/C(=O)Nc3ccc(Cl)cc32)SC1=S` [FX1] gave an IC50 (U87-MG) of 32 ± 1.12 µM, an IC50 (U251) of 37.4 ± 1.41 µM and an IC50 (SF268) of 43.9 ± 1.23 µM.

With `Cn1nnc2c(C(N)=O)ncn2c1=O` [TMZ, temozolomide] the “U87-MG-luci xenograft growth (bioluminescence)” value (U87-MG-Luc xenograft) was “improved” and the BCL6 expression (BCL6) was “up-regulated”.
